Data taken from patent publication US20250230193A1, “CYCLIC COMPOUND HAVING SELECTIVE KRAS INHIBITORY EFFECT ON HRAS AND NRAS” (CHUGAI SEIYAKU KABUSHIKI KAISHA, priority 2022, published 2025).

Experiments:
[1] = target: GDP-bound NRAS wild-type protein (Homo sapiens, UniProt P01111); assay: Binding to NRAS by surface plasmon resonance (SPR), Single Cycle Kinetics; details: KD ratio NRAS/KRAS, class symbols
[2] = target: GDP-bound HRAS wild-type protein (Homo sapiens, UniProt P01112); assay: Binding to HRAS by surface plasmon resonance (SPR), Single Cycle Kinetics; details: KD ratio HRAS/KRAS, class symbols
Chain of GDP-bound HRAS wild-type protein (P01112 whole entry): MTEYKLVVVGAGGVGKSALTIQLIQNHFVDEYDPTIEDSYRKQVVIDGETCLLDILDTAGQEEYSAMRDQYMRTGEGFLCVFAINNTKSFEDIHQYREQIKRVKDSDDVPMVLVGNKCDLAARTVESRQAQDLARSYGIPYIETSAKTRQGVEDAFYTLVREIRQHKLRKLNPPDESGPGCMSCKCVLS

Chain of GDP-bound NRAS wild-type protein (P01111 whole entry): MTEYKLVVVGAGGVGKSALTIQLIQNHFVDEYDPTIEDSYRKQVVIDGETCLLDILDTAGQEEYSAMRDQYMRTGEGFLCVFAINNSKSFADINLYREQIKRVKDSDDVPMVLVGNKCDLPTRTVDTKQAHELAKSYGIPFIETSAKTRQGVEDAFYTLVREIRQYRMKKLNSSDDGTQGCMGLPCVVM

| SMILES | NRAS/KRAS (ratio of KD value with respect to GDP-bound NRAS wild-type protein to KD value with respect to KRAS) [1] | HRAS/KRAS (ratio of KD value with respect to GDP-bound HRAS wild-type protein to KD value with respect to KRAS) [2] |
| --- | --- | --- |
| CCC[C@H]1C(=O)N[C@@H]([C@@H](C)CC)C(=O)N(C)CC(=O)N(C)[C@H]2C/C=C\CCN(C2=O)[C@@H](Cc2ccc(C(F)F)cc2)C(=O)N(C)CC(=O)N[C@@H](CCc2ccc(Cl)c(Cl)c2)C(=O)N2C[C@H](OCC)C[C@H]2C(=O)NC2(CC(C)(C)C2)C(=O)N(C)[C@@H](C(CC)CC)C(=O)N(C)[C@H](C(=O)N(C)C)CC(=O)N1C [PP2531] | AA (a compound having 20 or more is denoted as AA) | A (a compound having 10 or more and less than 20 is denoted as A) |
| CCC[C@H]1C(=O)N[C@@H](CC(C)C)C(=O)N(C2CC2)CC(=O)N(C)[C@H]2C/C=C\CCN(C2=O)[C@@H](Cc2ccc(C)cc2)C(=O)N(C)CC(=O)N[C@@H](CCc2cc(F)c(C(F)(F)F)c(F)c2)C(=O)N2C[C@H](OCC)C[C@H]2C(=O)NC2(CCC2)C(=O)N(C)[C@@H](C2CCCC2)C(=O)N(C)[C@H](C(=O)N(C)C)CC(=O)N1C [PP2532] | A (a compound having 10 or more and less than 20 is denoted as A) | B (a compound having 3 or more and less than 10 is denoted as B) |
| CCC(CC)[C@H]1C(=O)N(C)[C@H](C(=O)N(C)C)CC(=O)N(C)[C@@H](COC)C(=O)N[C@@H]([C@@H](C)CC)C(=O)N(C)CC(=O)N(C)[C@H]2C/C=C\CCN(C2=O)[C@@H](Cc2ccc(C(F)(F)F)cc2)C(=O)N(C)CC(=O)N[C@@H](CCc2ccc(Cl)c(Cl)c2)C(=O)N2C[C@H](OC(C)C)C[C@H]2C(=O)NC2(CC(C)(C)C2)C(=O)N1C [PP2533] | AA (a compound having 20 or more is denoted as AA) | A (a compound having 10 or more and less than 20 is denoted as A) |
| CCC[C@H]1C(=O)N[C@@H](CC(C)C)C(=O)N(C2CC2)CC(=O)N(C)[C@H]2C/C=C\CCN(C2=O)[C@@H](Cc2ccc(C)cc2)C(=O)N(C)CC(=O)N[C@@H](CCc2ccc(C(F)(F)F)c(OC)c2)C(=O)N2C[C@H](OCC)C[C@H]2C(=O)NC2(CCC2)C(=O)N(C)[C@@H](C2CCCC2)C(=O)N(C)[C@H](C(=O)N(C)C)CC(=O)N1C [PP2534] | A (a compound having 10 or more and less than 20 is denoted as A) | B (a compound having 3 or more and less than 10 is denoted as B) |
| CCC[C@H]1C(=O)N[C@@H]([C@@H](C)CC)C(=O)N(C)CC(=O)N(C)[C@H]2C/C=C\CCN(C2=O)[C@@H](Cc2ccc(C(F)F)cc2)C(=O)N(C)CC(=O)N[C@@H](CCc2ccc(Cl)c(Cl)c2)C(=O)N2C[C@H](OC(C)C)C[C@H]2C(=O)NC2(CC(C)(C)C2)C(=O)N(C)[C@@H](C(CC)CC)C(=O)N(C)[C@H](C(=O)N(C)C)CC(=O)N1C [PP2535] | AA (a compound having 20 or more is denoted as AA) | A (a compound having 10 or more and less than 20 is denoted as A) |
| C#CCN1CC(=O)N(C)[C@H]2C/C=C\CCN(C2=O)[C@@H](Cc2ccc(C)cc2)C(=O)N(C)CC(=O)N[C@@H](CCc2cc(F)c(C(F)(F)F)c(F)c2)C(=O)N2C[C@H](OCC)C[C@H]2C(=O)NC2(CCC2)C(=O)N(C)[C@@H](C2CCCC2)C(=O)N(C)[C@H](C(=O)N(C)C)CC(=O)N(C)[C@@H](CCC)C(=O)N[C@@H](CC(C)C)C1=O [PP2536] | A (a compound having 10 or more and less than 20 is denoted as A) | B (a compound having 3 or more and less than 10 is denoted as B) |
